From ChEMBL document CHEMBL4402510, “Caprazamycins: Promising lead structures acting on a novel antibacterial target MraY” (Eur J Med Chem, 2019)
In brackets after ≈: the same amount, converted by molar mass.

How the values were obtained:
Staphylococcus aureus [1] = assay: Antibacterial activity against Staphylococcus aureus FDA 209P; type: functional
Bacillus subtilis = assay: Antibacterial activity against Bacillus subtilis PCI 219; type: functional
Escherichia coli = assay: Antibacterial activity against Escherichia coli K-12; type: functional
[2] = tested on: Mycobacterium avium subsp. paratuberculosis; assay: Antibacterial activity against Mycobacterium avium subsp. paratuberculosis ATCC 43015; type: functional
[3] = tested on: Mycobacterium tuberculosis; assay: Antibacterial activity against Mycobacterium tuberculosis JCM 6384; type: functional
Mycolicibacterium phlei = assay: Antibacterial activity against Mycobacterium phlei; type: functional
Mycolicibacterium vaccae = assay: Antibacterial activity against Mycobacterium vaccae ATCC 15483; type: functional
Staphylococcus aureus [4] = assay: Antibacterial activity against methicillin resistant Staphylococcus aureus MS16526; type: functional
[5] = tested on: Mycolicibacterium smegmatis; assay: Antibacterial activity against Mycobacterium smegmatis ATCC 607; type: functional
Streptococcus pneumoniae = assay: Antibacterial activity against Streptococcus pneumoniae PCI 602; type: functional
[6] = tested on: Mycobacterium tuberculosis; assay: Antibacterial activity against Mycobacterium tuberculosis Kurono; type: functional
[7] = Antibacterial activity against Mycobacterium avium subsp. avium ATCC 25291; type: functional
Staphylococcus aureus [8] = assay: Antibacterial activity against methicillin resistant Staphylococcus aureus No. 5; type: functional
[9] = tested on: Mycobacterium tuberculosis; assay: Antibacterial activity against Mycobacterium tuberculosis H37Rv; type: functional
[10] = biological target: T1, Phospho-N-acetylmuramoyl-pentapeptide-transferase (Bacillus subtilis (strain 168), UniProt Q03521); assay: Inhibition of MraY in Bacillus subtilis
T1 sequence (Q03521 whole entry): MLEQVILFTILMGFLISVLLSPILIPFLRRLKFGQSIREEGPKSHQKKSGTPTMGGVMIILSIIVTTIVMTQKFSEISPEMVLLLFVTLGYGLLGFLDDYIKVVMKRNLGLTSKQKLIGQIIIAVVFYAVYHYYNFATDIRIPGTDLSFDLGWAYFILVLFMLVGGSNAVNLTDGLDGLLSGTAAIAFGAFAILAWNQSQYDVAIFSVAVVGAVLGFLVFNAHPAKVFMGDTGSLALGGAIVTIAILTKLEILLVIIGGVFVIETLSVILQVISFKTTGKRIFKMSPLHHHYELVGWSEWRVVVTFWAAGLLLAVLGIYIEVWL

[11] = biological target: T2, Phospho-N-acetylmuramoyl-pentapeptide-transferase (Aquifex aeolicus (strain VF5), UniProt O66465); assay: Inhibition of MraY in Aquifex aeolicus
T2 sequence (O66465 whole entry): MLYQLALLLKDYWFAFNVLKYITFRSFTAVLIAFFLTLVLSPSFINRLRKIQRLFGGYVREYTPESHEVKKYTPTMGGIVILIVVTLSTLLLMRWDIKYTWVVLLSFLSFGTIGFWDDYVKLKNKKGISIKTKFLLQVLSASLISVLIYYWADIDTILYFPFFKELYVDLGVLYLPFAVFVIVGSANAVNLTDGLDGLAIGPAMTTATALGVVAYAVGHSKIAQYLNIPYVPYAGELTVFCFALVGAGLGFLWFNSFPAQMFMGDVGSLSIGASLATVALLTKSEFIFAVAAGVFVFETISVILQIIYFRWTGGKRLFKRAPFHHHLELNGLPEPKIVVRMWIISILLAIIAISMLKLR

Compound | MIC (Staphylococcus aureus [1]) | MIC (Bacillus subtilis) | MIC (Escherichia coli) | MIC [2] | MIC [3] | MIC (Mycolicibacterium phlei) | MIC (Mycolicibacterium vaccae) | MIC (Staphylococcus aureus [4]) | MIC [5] | MIC (Streptococcus pneumoniae) | MIC [6] | MIC [7] | MIC (Staphylococcus aureus [8]) | MIC [9] | IC50 [10] | IC50 [11]
CCCCCCNC(=O)C1=CCN(C)[C@@H]([C@H](O[C@@H]2O[C@H](CN)[C@@H](O)[C@H]2O)[C@H]2O[C@@H](n3ccc(=O)[nH]c3=O)[C@H](O)[C@@H]2O)C(=O)N1C | > 100 µg/mL | 25 µg/mL (≈ 39 µM) | > 100 µg/mL | 0.78 µg/mL (≈ 1.22 µM) | 1.56 µg/mL (≈ 2.43 µM) | 100 µg/mL (≈ 156 µM) | 100 µg/mL (≈ 156 µM) | > 100 µg/mL | 50 µg/mL (≈ 78 µM) | > 100 µg/mL | 1.56 µg/mL (≈ 2.43 µM) | 12.5 µg/mL (≈ 19.5 µM) | > 100 µg/mL | 3.16 µg/mL (≈ 4.93 µM) |  | 
CCCCCCCCCCCCCCCCCCCNC(=O)C1=CCN(C)[C@@H]([C@H](O[C@@H]2O[C@H](CN)[C@@H](O)[C@H]2O)[C@H]2O[C@@H](n3ccc(=O)[nH]c3=O)[C@H](O)[C@@H]2O)C(=O)N1C | 6.25 µg/mL (≈ 7.59 µM) | 0.78 µg/mL (≈ 0.948 µM) | > 100 µg/mL | 0.78 µg/mL (≈ 0.948 µM) | 0.78 µg/mL (≈ 0.948 µM) | 25 µg/mL (≈ 30.4 µM) | 3.13 µg/mL (≈ 3.8 µM) | 6.25 µg/mL (≈ 7.59 µM) | 12.5 µg/mL (≈ 15.2 µM) | > 100 µg/mL | 1.56 µg/mL (≈ 1.9 µM) | 1.56 µg/mL (≈ 1.9 µM) | 6.25 µg/mL (≈ 7.59 µM) | 1.56 µg/mL (≈ 1.9 µM) |  | 
NC[C@H]1O[C@@H](O[C@@H](c2cn(CCCOc3ccc(C(=O)c4ccccc4)cc3)nn2)[C@H]2O[C@@H](n3ccc(=O)[nH]c3=O)[C@H](O)[C@@H]2O)[C@H](O)[C@@H]1O |  |  |  |  |  |  |  |  |  |  |  |  |  |  | 100 µM | 125 µM
CN1C(=O)[C@H]([C@H](O[C@@H]2O[C@H](CN)[C@@H](O)[C@H]2O)[C@H]2O[C@@H](n3ccc(=O)[nH]c3=O)[C@H](O)[C@@H]2O)N(C)CC=C1C(=O)Nc1ccc(C2CCCCC2)cc1 | 100 µg/mL (≈ 140 µM) | 100 µg/mL (≈ 140 µM) | 6.25 µg/mL (≈ 8.74 µM) | 0.78 µg/mL (≈ 1.09 µM) | 0.39 µg/mL (≈ 0.546 µM) | 12.5 µg/mL (≈ 17.5 µM) | 25 µg/mL (≈ 35 µM) | 0.39 µg/mL (≈ 0.546 µM) | 1.56 µg/mL (≈ 2.18 µM) | 12.5 µg/mL (≈ 17.5 µM) | 1.56 µg/mL (≈ 2.18 µM) | 1.56 µg/mL (≈ 2.18 µM) | 100 µg/mL (≈ 140 µM) | 1.56 µg/mL (≈ 2.18 µM) |  | 
CCCCCCCCCCCCCCNC(=O)C1=CCN(C)[C@@H]([C@H](O[C@@H]2O[C@H](CN)[C@@H](O)[C@H]2O)[C@H]2O[C@@H](n3ccc(=O)[nH]c3=O)[C@H](O)[C@@H]2O)C(=O)N1C | 3.13 µg/mL (≈ 4.16 µM) | 0.2 µg/mL (≈ 0.266 µM) | > 100 µg/mL | 0.39 µg/mL (≈ 0.518 µM) | 0.39 µg/mL (≈ 0.518 µM) | 0.78 µg/mL (≈ 1.04 µM) | 1.56 µg/mL (≈ 2.07 µM) | 3.13 µg/mL (≈ 4.16 µM) | 1.56 µg/mL (≈ 2.07 µM) | 12.5 µg/mL (≈ 16.6 µM) | 1.56 µg/mL (≈ 2.07 µM) | 3.13 µg/mL (≈ 4.16 µM) | 6.25 µg/mL (≈ 8.3 µM) | 1.56 µg/mL (≈ 2.07 µM) |  | 
CCCCCCCNC(=O)C1=CCN(C)[C@@H]([C@H](O[C@@H]2O[C@H](CN)[C@@H](O)[C@H]2O)[C@H]2O[C@@H](n3ccc(=O)[nH]c3=O)[C@H](O)[C@@H]2O)C(=O)N1C | 6.25 µg/mL (≈ 9.55 µM) | > 100 µg/mL | > 100 µg/mL | 25 µg/mL (≈ 38.2 µM) | 50 µg/mL (≈ 76.4 µM) | > 100 µg/mL | > 100 µg/mL | > 100 µg/mL | 25 µg/mL (≈ 38.2 µM) | > 100 µg/mL | 1.56 µg/mL (≈ 2.38 µM) | 25 µg/mL (≈ 38.2 µM) | > 100 µg/mL | 3.13 µg/mL (≈ 4.78 µM) |  | 
CN1C(=O)[C@H]([C@H](O[C@@H]2O[C@H](CN)[C@@H](O)[C@H]2O)[C@H]2O[C@@H](n3ccc(=O)[nH]c3=O)[C@H](O)[C@@H]2O)N(C)CC=C1C(=O)NC1CCCCCCCCCCC1 | 100 µg/mL (≈ 138 µM) | 1.56 µg/mL (≈ 2.16 µM) | > 100 µg/mL | 0.05 µg/mL (≈ 0.0692 µM) | < 0.05 µg/mL | 6.25 µg/mL (≈ 8.65 µM) | 25 µg/mL (≈ 34.6 µM) | > 100 µg/mL | 3.13 µg/mL (≈ 4.33 µM) | > 100 µg/mL | 1.56 µg/mL (≈ 2.16 µM) | 3.13 µg/mL (≈ 4.33 µM) | > 100 µg/mL | 1.56 µg/mL (≈ 2.16 µM) |  | 
CCCCCCCCCCNC(=O)C1=CCN(C)[C@@H]([C@H](O[C@@H]2O[C@H](CN)[C@@H](O)[C@H]2O)[C@H]2O[C@@H](n3ccc(=O)[nH]c3=O)[C@H](O)[C@@H]2O)C(=O)N1C | 0.78 µg/mL (≈ 1.12 µM) | > 100 µg/mL | > 100 µg/mL | 6.25 µg/mL (≈ 8.97 µM) | 0.78 µg/mL (≈ 1.12 µM) | 25 µg/mL (≈ 35.9 µM) | 50 µg/mL (≈ 71.8 µM) | > 100 µg/mL | 6.25 µg/mL (≈ 8.97 µM) | > 100 µg/mL | 1.56 µg/mL (≈ 2.24 µM) | 0.39 µg/mL (≈ 0.56 µM) | > 100 µg/mL | 1.56 µg/mL (≈ 2.24 µM) |  | 
CCCCCCCCCCCCCCCCNC(=O)C1=CCN(C)[C@@H]([C@H](O[C@@H]2O[C@H](CN)[C@@H](O)[C@H]2O)[C@H]2O[C@@H](n3ccc(=O)[nH]c3=O)[C@H](O)[C@@H]2O)C(=O)N1C | 0.78 µg/mL (≈ 0.999 µM) |  |  | 6.25 µg/mL (≈ 8 µM) | 3.13 µg/mL (≈ 4.01 µM) | > 100 µg/mL | > 100 µg/mL |  | 0.78 µg/mL (≈ 0.999 µM) | 1.56 µg/mL (≈ 2 µM) | 3.13 µg/mL (≈ 4.01 µM) | 3.13 µg/mL (≈ 4.01 µM) | 1.56 µg/mL (≈ 2 µM) | 3.13 µg/mL (≈ 4.01 µM) |  | 
CCCCCCCCCCCCNC(=O)C1=CCN(C)[C@@H]([C@H](O[C@@H]2O[C@H](CN)[C@@H](O)[C@H]2O)[C@H]2O[C@@H](n3ccc(=O)[nH]c3=O)[C@H](O)[C@@H]2O)C(=O)N1C | 3.13 µg/mL (≈ 4.32 µM) | 0.78 µg/mL (≈ 1.08 µM) | 100 µg/mL (≈ 138 µM) |  | 0.2 µg/mL (≈ 0.276 µM) | 0.39 µg/mL (≈ 0.538 µM) | 1.56 µg/mL (≈ 2.15 µM) | 6.25 µg/mL (≈ 8.62 µM) | 0.39 µg/mL (≈ 0.538 µM) | 6.25 µg/mL (≈ 8.62 µM) | 1.56 µg/mL (≈ 2.15 µM) | 3.13 µg/mL (≈ 4.32 µM) | 12.5 µg/mL (≈ 17.2 µM) | 1.56 µg/mL (≈ 2.15 µM) |  | 
NC[C@H]1O[C@@H](O[C@@H](c2cn(CCCO)nn2)[C@H]2O[C@@H](n3ccc(=O)[nH]c3=O)[C@H](O)[C@@H]2O)[C@H](O)[C@@H]1O |  |  |  |  |  |  |  |  |  |  |  |  |  |  | > 1000 µM | 
NC[C@H]1O[C@@H](O[C@@H](c2cn(CCCCCN3CCCCC3)nn2)[C@H]2O[C@@H](n3ccc(=O)[nH]c3=O)[C@H](O)[C@@H]2O)[C@H](O)[C@@H]1O |  |  |  |  |  |  |  |  |  |  |  |  |  |  | 150 µM | 
NC[C@H]1O[C@@H](O[C@@H](c2cn(CCCc3ccccc3)nn2)[C@H]2O[C@@H](n3ccc(=O)[nH]c3=O)[C@H](O)[C@@H]2O)[C@H](O)[C@@H]1O |  |  |  |  |  |  |  |  |  |  |  |  |  |  | 250 µM | 
NC[C@H]1O[C@@H](O[C@@H](c2cn(CCN3CCN(c4ccc(N)cn4)CC3)nn2)[C@H]2O[C@@H](n3ccc(=O)[nH]c3=O)[C@H](O)[C@@H]2O)[C@H](O)[C@@H]1O |  |  |  |  |  |  |  |  |  |  |  |  |  |  | > 1000 µM | 
NCCCCCn1cc([C@H](O[C@@H]2O[C@H](CN)[C@@H](O)[C@H]2O)[C@H]2O[C@@H](n3ccc(=O)[nH]c3=O)[C@H](O)[C@@H]2O)nn1 |  |  |  |  |  |  |  |  |  |  |  |  |  |  | > 1000 µM | 
NC[C@H]1O[C@@H](O[C@@H](c2cn(CCc3ccc(-c4ccccc4)cc3)nn2)[C@H]2O[C@@H](n3ccc(=O)[nH]c3=O)[C@H](O)[C@@H]2O)[C@H](O)[C@@H]1O |  |  |  |  |  |  |  |  |  |  |  |  |  |  | 400 µM | 
